Results reported in ChEMBL document CHEMBL1201862, “PubChem BioAssay data set” (2004).
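Five compound concentrations were applied to cells in 96-well plates for 48 hours; endpoints were derived by simple linear interpolation of the resulting dose-response curve. GI50 marks 50% less growth.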 Calls of active or inactive are those of the source. No stated cut-off is given here; in the data, active = GI50 up to about 1.1 µM and inactive = higher.

Assays:
Experiment in all cases: growth of human tumour cells (NCI), 48 h
EKVX = system: EKVX
DU-145 = system: DU-145
CAKI-1 = system: CAKI-1
HCT-15 = system: HCT-15
IGROV-1 = system: IGROV-1
SF-295 = system: SF-295
SR = system: SR
A549 = system: A549
A498 = system: A498
KM12 = system: KM12
SNB-19 = system: SNB-19
786-0 = system: 786-0
SF-539 = system: SF-539
LOX IMVI = system: LOX IMVI
UACC-62 = system: UACC-62
NCI-H226 = system: NCI-H226
HOP-92 = system: HOP-92
PC-3 = system: PC-3
OVCAR-5 = system: OVCAR-5
ACHN = system: ACHN
MDA-N = system: MDA-N
K562 = system: K562
M14 = system: M14
RPMI-8226 = system: RPMI-8226
TK-10 = system: TK-10
T47D = system: T47D
MDA-MB-435 = system: MDA-MB-435
Hs-578T = system: Hs-578T
NCI-H23 = system: NCI-H23
OVCAR-3 = system: OVCAR-3
SF-268 = system: SF-268
HT-29 = system: HT-29
MOLT-4 = system: MOLT-4
SN12C = system: SN12C
BT-549 = system: BT-549
COLO 205 = system: COLO 205
SK-MEL-5 = system: SK-MEL-5
HOP-62 = system: HOP-62
MCF7 = system: MCF7
HCT-116 = system: HCT-116
MDA-MB-231 = system: MDA-MB-231
SNB-75 = system: SNB-75
OVCAR-8 = system: OVCAR-8
SK-OV-3 = system: SK-OV-3
SW-620 = system: SW-620
NCI/ADR-RES = system: NCI/ADR-RES
CCRF-CEM = system: CCRF-CEM
UO-31 = system: UO-31
HL-60 = system: HL-60
SK-MEL-2 = system: SK-MEL-2
U-251 = system: U-251
UACC-257 = system: UACC-257
NCI-H460 = system: NCI-H460
SK-MEL-28 = system: SK-MEL-28
RXF 393 = system: RXF 393
HCC 2998 = system: HCC 2998
OVCAR-4 = system: OVCAR-4
NCI-H522 = system: NCI-H522
Malme-3M = system: Malme-3M

O=c1[nH]c(=O)n2n1C1C=CC2CC1
GI50 (EKVX): > 100 µM (inactive)
GI50 (DU-145): > 100 µM (inactive)
GI50 (CAKI-1): > 100 µM (inactive)
GI50 (HCT-15): > 100 µM
GI50 (IGROV-1): > 100 µM (inactive)
GI50 (SF-295): > 100 µM (inactive)
GI50 (SR): > 100 µM (inactive)
GI50 (A549): > 100 µM (inactive)
GI50 (A498): > 100 µM (inactive)
GI50 (KM12): > 100 µM (inactive)
GI50 (SNB-19): > 100 µM (inactive)
GI50 (786-0): > 100 µM (inactive)
GI50 (SF-539): > 100 µM (inactive)
GI50 (LOX IMVI): > 100 µM (inactive)
GI50 (UACC-62): > 100 µM (inactive)
GI50 (NCI-H226): > 100 µM (inactive)
GI50 (HOP-92): > 100 µM (inactive)
GI50 (PC-3): > 100 µM (inactive)
GI50 (OVCAR-5): > 100 µM (inactive)
GI50 (ACHN): > 100 µM (inactive)
GI50 (MDA-N): > 100 µM (inactive)
GI50 (K562): > 100 µM (inactive)
GI50 (M14): > 100 µM (inactive)
GI50 (RPMI-8226): > 100 µM (inactive)
GI50 (TK-10): > 100 µM (inactive)
GI50 (T47D): > 100 µM (inactive)
GI50 (MDA-MB-435): > 100 µM (inactive)
GI50 (Hs-578T): > 100 µM (inactive)
GI50 (NCI-H23): > 100 µM (inactive)
GI50 (OVCAR-3): > 100 µM (inactive)
GI50 (SF-268): > 100 µM (inactive)
GI50 (HT-29): > 100 µM (inactive)
GI50 (MOLT-4): > 100 µM (inactive)
GI50 (SN12C): > 100 µM (inactive)
GI50 (BT-549): > 100 µM (inactive)
GI50 (COLO 205): > 100 µM (inactive)
GI50 (SK-MEL-5): > 100 µM (inactive)
GI50 (HOP-62): > 100 µM (inactive)
GI50 (MCF7): > 100 µM (inactive)
GI50 (HCT-116): > 100 µM (inactive)
GI50 (MDA-MB-231): > 100 µM (inactive)
GI50 (SNB-75): > 100 µM (inactive)
GI50 (OVCAR-8): > 100 µM (inactive)
GI50 (SK-OV-3): > 100 µM (inactive)
GI50 (SW-620): > 100 µM (inactive)
GI50 (NCI/ADR-RES): > 100 µM (inactive)
GI50 (CCRF-CEM): > 100 µM (inactive)
GI50 (UO-31): > 100 µM (inactive)
GI50 (HL-60): > 100 µM (inactive)
GI50 (SK-MEL-2): > 100 µM (inactive)
GI50 (U-251): > 100 µM (inactive)
GI50 (UACC-257): > 100 µM (inactive)
GI50 (NCI-H460): > 100 µM (inactive)
GI50 (SK-MEL-28): > 100 µM (inactive)

O=C1/C(=C/c2ccc(Cl)cc2)Oc2ccccc21
GI50 (EKVX): 22.1 µM (inactive)
GI50 (DU-145): 19.7 µM (inactive)
GI50 (CAKI-1): 2.76 µM (inactive)
GI50 (HCT-15): 66.7 µM
GI50 (IGROV-1): > 10 µM (inactive)
GI50 (SF-295): 56.5 µM (inactive)
GI50 (RXF 393): 21.4 µM (inactive)
GI50 (SR): 51.2 µM (inactive)
GI50 (A549): 18.7 µM (inactive)
GI50 (KM12): 32.4 µM (inactive)
GI50 (SNB-19): 37 µM (inactive)
GI50 (786-0): 15.7 µM (inactive)
GI50 (SF-539): 20.6 µM (inactive)
GI50 (UACC-62): 58.6 µM (inactive)
GI50 (NCI-H226): 38.1 µM (inactive)
GI50 (PC-3): > 10 µM (inactive)
GI50 (ACHN): 20.4 µM (inactive)
GI50 (MDA-N): 37.3 µM (inactive)
GI50 (K562): > 100 µM (inactive)
GI50 (M14): 43.8 µM (inactive)
GI50 (RPMI-8226): 58.2 µM (inactive)
GI50 (TK-10): 22.7 µM (inactive)
GI50 (T47D): 27.4 µM (inactive)
GI50 (MDA-MB-435): 79.3 µM (inactive)
GI50 (HCC 2998): > 100 µM (inactive)
GI50 (Hs-578T): 18.7 µM (inactive)
GI50 (NCI-H23): 23.4 µM (inactive)
GI50 (OVCAR-3): > 100 µM (inactive)
GI50 (SF-268): 51.6 µM (inactive)
GI50 (HT-29): > 100 µM (inactive)
GI50 (OVCAR-4): 46.5 µM (inactive)
GI50 (MOLT-4): 55.6 µM (inactive)
GI50 (SN12C): 96.8 µM (inactive)
GI50 (BT-549): 25.6 µM (inactive)
GI50 (COLO 205): 47.1 µM (inactive)
GI50 (SK-MEL-5): 20.4 µM (inactive)
GI50 (HOP-62): 22.3 µM (inactive)
GI50 (MCF7): 30.2 µM (inactive)
GI50 (HCT-116): 59.4 µM (inactive)
GI50 (MDA-MB-231): > 100 µM (inactive)
GI50 (SNB-75): 32.7 µM (inactive)
GI50 (OVCAR-8): 29.9 µM (inactive)
GI50 (SK-OV-3): > 100 µM (inactive)
GI50 (SW-620): > 100 µM (inactive)
GI50 (NCI-H522): 11.7 µM (inactive)
GI50 (NCI/ADR-RES): > 10 µM (inactive)
GI50 (CCRF-CEM): > 100 µM (inactive)
GI50 (UO-31): 16.8 µM (inactive)
GI50 (HL-60): > 100 µM (inactive)
GI50 (U-251): 36.3 µM (inactive)
GI50 (UACC-257): 64.7 µM (inactive)
GI50 (NCI-H460): 26.4 µM (inactive)
GI50 (SK-MEL-28): > 100 µM (inactive)

CC(=O)C(C(=N)C#N)C(=O)Nc1ccccc1 (stereo not drawn)
GI50 (EKVX): > 100 µM (inactive)
GI50 (DU-145): > 100 µM (inactive)
GI50 (CAKI-1): > 100 µM (inactive)
GI50 (HCT-15): > 100 µM
GI50 (IGROV-1): > 100 µM (inactive)
GI50 (SF-295): > 100 µM (inactive)
GI50 (RXF 393): > 100 µM (inactive)
GI50 (SR): > 100 µM (inactive)
GI50 (A549): > 100 µM (inactive)
GI50 (A498): > 100 µM (inactive)
GI50 (KM12): > 100 µM (inactive)
GI50 (SNB-19): > 100 µM (inactive)
GI50 (786-0): > 100 µM (inactive)
GI50 (SF-539): > 100 µM (inactive)
GI50 (LOX IMVI): > 100 µM (inactive)
GI50 (UACC-62): > 100 µM (inactive)
GI50 (NCI-H226): > 100 µM (inactive)
GI50 (HOP-92): > 100 µM (inactive)
GI50 (PC-3): > 100 µM (inactive)
GI50 (OVCAR-5): > 100 µM (inactive)
GI50 (ACHN): > 100 µM (inactive)
GI50 (MDA-N): > 100 µM (inactive)
GI50 (K562): > 100 µM (inactive)
GI50 (M14): > 100 µM (inactive)
GI50 (RPMI-8226): > 100 µM (inactive)
GI50 (TK-10): > 100 µM (inactive)
GI50 (T47D): > 100 µM (inactive)
GI50 (MDA-MB-435): > 100 µM (inactive)
GI50 (Hs-578T): 44.9 µM (inactive)
GI50 (NCI-H23): > 100 µM (inactive)
GI50 (OVCAR-3): > 100 µM (inactive)
GI50 (SF-268): > 100 µM (inactive)
GI50 (HT-29): > 100 µM (inactive)
GI50 (OVCAR-4): > 100 µM (inactive)
GI50 (MOLT-4): > 100 µM (inactive)
GI50 (SN12C): > 100 µM (inactive)
GI50 (BT-549): > 100 µM (inactive)
GI50 (COLO 205): > 100 µM (inactive)
GI50 (SK-MEL-5): > 100 µM (inactive)
GI50 (HOP-62): > 100 µM (inactive)
GI50 (MCF7): > 100 µM (inactive)
GI50 (HCT-116): > 100 µM (inactive)
GI50 (MDA-MB-231): > 100 µM (inactive)
GI50 (SNB-75): > 100 µM (inactive)
GI50 (OVCAR-8): > 100 µM (inactive)
GI50 (SK-OV-3): > 100 µM (inactive)
GI50 (SW-620): > 100 µM (inactive)
GI50 (NCI-H522): > 100 µM (inactive)
GI50 (NCI/ADR-RES): > 100 µM (inactive)
GI50 (CCRF-CEM): > 100 µM (inactive)
GI50 (Malme-3M): > 100 µM (inactive)
GI50 (SK-MEL-2): > 100 µM (inactive)
GI50 (U-251): > 100 µM (inactive)
GI50 (UACC-257): > 100 µM (inactive)
GI50 (NCI-H460): > 100 µM (inactive)
GI50 (SK-MEL-28): > 100 µM (inactive)
